Test results reported in patent publication US12006527B2, “Coryneform bacterium transformant and method for producing 2-phenylethanol using same” (Research Institute of Innovative Technology for the Earth, priority 2018, dated 2024).
“Also recorded” adds a separate entry of the source.

Columns and labels:
Test in all cases: Growth inhibition by 2-phenylethanol in aerobic culture (OD610)
Assay type in all cases: cell-based
[1] = system: Corynebacterium glutamicum R; conditions: aerobic shaking culture 33° C., A-liquid medium
Procedure: Tests regarding growth inhibition by 2-phenylethanol in aerobic culture were carried out on Corynebacterium glutamicum, Escherichia coli, Pseudomonas putida, and Kluyveromyces marxianus. Corynebacterium glutamicum R was applied to an A-agar plate (the same as that described above), and was left to stand in a dark place at 33° C. for 15 hours. One platinum loop of Corynebacterium glutamicum R grown on the plate described above was inoculated in a test tube having therein 10 ml of the A-liquid medium, and aerobic shaking culture was carried out at 33° C. for 13 hours. Corynebacterium glutamicum R grown under the above-described conditions was inoculated in 100 ml of the A-liquid medium (the same as that described above) so that the initial bacterial cell concentration OD610=0.05 was achieved. Simultaneously, 2-phenylethanol was added so that the final concentrations thereof became 0, 10, 20, 30, 40, and 50 mM, and aerobic shaking culture was carried out at 33° C. The growth of bacterial cells was determined by measuring the absorbance of OD610.

Escherichia coli MG1655 = conditions: aerobic shaking culture, LB-liquid medium
Procedure: Tests regarding growth inhibition by 2-phenylethanol in aerobic culture were carried out on Corynebacterium glutamicum, Escherichia coli, Pseudomonas putida, and Kluyveromyces marxianus. Escherichia coli MG1655 was applied to an LB-agar plate [containing 1% polypeptone, 0.5% yeast extract, 0.5% sodium chloride, and 1.5% agar], and was left to stand at 37° C. for 15 hours in a dark place. One platinum loop of Escherichia coli MG1655 grown on the plate described above was inoculated in a test tube having therein 10 ml of an LB-liquid medium [containing 1% polypeptone, 0.5% yeast extract, and 0.5% sodium chloride], and was subjected to aerobic shaking culture at 37° C. for 13 hours. Escherichia coli MG1655 grown under the above-described conditions was inoculated in 100 ml of the LB-liquid medium so that the initial bacterial cell concentration OD610=0.05 was achieved. Simultaneously, 2-phenylethanol was added so that the final concentrations thereof became 0, 10, 20, 30, 40, and 50 mM, and aerobic shaking culture was carried out at 33° C. The growth of bacterial cells was determined by measuring the absorbance of OD610.

Pseudomonas putida S12 = conditions: aerobic shaking culture 30° C., LB(+glucose)-liquid medium
Procedure: Tests regarding growth inhibition by 2-phenylethanol in aerobic culture were carried out on Corynebacterium glutamicum, Escherichia coli, Pseudomonas putida, and Kluyveromyces marxianus. Pseudomonas putida S12 was applied to an LB-agar plate [containing 1% polypeptone, 0.5% yeast extract, 0.5% sodium chloride, and 1.5% agar], and was left to stand at 30° C. for 15 hours in a dark place. One platinum loop of Pseudomonas putida S12 grown on the plate described above was inoculated in a test tube having therein 10 ml of an LB(+glucose)-liquid medium [containing 1% polypeptone, 0.5% yeast extract, 0.5% sodium chloride, and 0.4% glucose], and was subjected to aerobic shaking culture at 33° C. for 13 hours. The Pseudomonas putida S12 strain grown under the above-described conditions was inoculated in 100 ml of the LB(+glucose)-liquid medium so that the initial bacterial cell concentration OD610=0.05 was achieved. Simultaneously, 2-phenylethanol was added so that the final concentrations thereof became 0, 10, 20, 30, 40, and 50 mM, and aerobic shaking culture was carried out at 30° C. The growth of bacterial cells was determined by measuring the absorbance of OD610.

Kluyveromyces marxianus = conditions: aerobic shaking culture 40° C., YPD-liquid medium
Procedure: Tests regarding growth inhibition by 2-phenylethanol in aerobic culture were carried out on Corynebacterium glutamicum, Escherichia coli, Pseudomonas putida, and Kluyveromyces marxianus. Further, Kluyveromyces marxianus was applied to a YPD-agar plate [containing 2% polypeptone, 1% yeast extract, 2% glucose, and 1.5% agar], and was left to stand at 30° C. for 15 hours in a dark place. One platinum loop of Kluyveromyces marxianus grown on the plate described above was inoculated in a test tube having therein 10 ml of a YPD-liquid medium [containing 2% polypeptone, 1% yeast extract, and 2% glucose], and was subjected to aerobic shaking culture at 40° C. for 13 hours. Kluyveromyces marxianus grown under the above-described conditions was inoculated in 100 ml of the YPD-liquid medium so that the initial bacterial cell concentration OD610=0.05 was achieved. Simultaneously, 2-phenylethanol was added so that the final concentrations thereof became 0, 10, 20, 30, 40, and 50 mM, and aerobic shaking culture was carried out at 40° C. The growth of bacterial cells was determined by measuring the absorbance of OD610.

OCCc1ccccc1 [2-phenylethanol]
growth of Corynebacterium glutamicum ([1]; 20 mM 2-phenylethanol): not influenced at all | growth of Corynebacterium glutamicum ([1]; 30 mM 2-phenylethanol): delayed, but was improved 24 hours after | growth of Escherichia coli (Escherichia coli MG1655; 20 mM 2-phenylethanol): significantly inhibited; also recorded: strongly inhibited | growth of Escherichia coli (Escherichia coli MG1655; 30 mM 2-phenylethanol): substantially completely inhibited | growth of Pseudomonas putida (Pseudomonas putida S12; 20 mM 2-phenylethanol): strongly inhibited | growth of Pseudomonas putida (Pseudomonas putida S12; 30 mM 2-phenylethanol): substantially completely inhibited | growth of Kluyveromyces marxianus (Kluyveromyces marxianus; 20 mM 2-phenylethanol): strongly inhibited | growth of Kluyveromyces marxianus (Kluyveromyces marxianus; 30 mM 2-phenylethanol): substantially completely inhibited
